Patent US11066414B2, “Cot modulators and methods of use thereof” (Gilead Sciences, Inc., priority 2015, dated 2021)
Where two headings read alike, the source gives them in different places.

Legend:
TNFα = experiment: Cot Monocyte TNFα Cell Based Assay
Human Cot = Human Cot (Homo sapiens (Human), UniProt P41279); experiment: High Throughput Cot Biochemical Assay; conditions: Cot HTRF (TR-FRET) biochemical assay
[1] = Homo sapiens, Monocyte, read-out: EC50 TNF, LPS-stimulated human monocytes, TNFα
[2] = read-out: EC50 TNF, LPS-stimulated human monocytes, TNFα

Chain of Human Cot (P41279 30-397): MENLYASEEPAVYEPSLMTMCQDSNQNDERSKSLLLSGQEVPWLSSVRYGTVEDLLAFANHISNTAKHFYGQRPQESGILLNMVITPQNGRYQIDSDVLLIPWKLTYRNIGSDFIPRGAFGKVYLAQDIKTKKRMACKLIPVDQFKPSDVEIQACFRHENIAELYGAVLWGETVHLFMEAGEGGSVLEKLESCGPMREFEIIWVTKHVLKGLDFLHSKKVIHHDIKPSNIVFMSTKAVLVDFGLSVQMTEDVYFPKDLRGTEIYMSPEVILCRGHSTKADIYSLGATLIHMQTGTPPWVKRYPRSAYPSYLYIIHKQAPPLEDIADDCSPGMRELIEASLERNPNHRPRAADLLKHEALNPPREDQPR

Row | Compound | EC50 (TNFα; [1]) [nM] | IC50 (Human Cot; IC50 HTRF) [nM] | EC50 (TNFα; [2]) [nM] | IC50 (Human Cot; read-out: IC50 HTRF) [nM]
1 | CC(C)(C)N1CCC(n2cc([C@@H](Nc3cc(Cl)c4ncc(C#N)c(Nc5ccc(F)c(Cl)c5)c4c3)c3ccc(Cl)nc3Cl)nn2)CC1 [Example 325, (S)-6-(((1-(1-(tert-butyl)piperidin-4-yl)-1H-1,2,3-triazol-4-yl)(2,6-dichloropyridin-3-yl)methyl)amino)-8-chloro-4-((3-chloro-4-fluorophenyl)-amino)quinoline-3-carbonitrile] | 650 | 20 | – | –
2 | Cc1nc(Cl)ccc1[C@H](Nc1cc(Cl)c2ncc(C#N)c(Nc3ccc(F)c(Cl)c3)c2c1)c1cn(CCO)nn1 [Example 328, (S)-8-chloro-6-(((6-chloro-2-methylpyridin-3-yl)(1-(2-hydroxyethyl)-1H-1,2,3-triazol-4-yl)methyl)amino)-4-((3-chloro-4-fluorophenyl)amino)-quinoline-3-carbonitrile] | 272 | 4 | – | –
3 | N#Cc1cnc2c(Cl)cc(N[C@H](c3cn(CCO)nn3)c3cccnc3Cl)cc2c1Nc1ccc(F)c(Cl)c1 [Example 331, (S)-8-chloro-4-((3-chloro-4-fluorophenyl)amino)-6-(((2-chloropyridin-3-yl)(1-(2-hydroxy-ethyl)-1H-1,2,3-triazol-4-yl)methyl)amino)quinoline-3-carbonitrile] | 173 | 3 | – | –
4 | N#Cc1cnc2c(Cl)cc(N[C@@H](c3cccnc3)c3cn(CCN4CCCCC4)nn3)cc2c1Nc1ccc(F)c(Cl)c1 [Example 334, (S)-8-chloro-4-((3-chloro-4-fluorophenyl)amino)-6-(((1-(2-(piperidin-1-yl)ethyl)-1H-1,2,3-triazol-4-yl)(pyridin-3-yl)methyl)-amino)quinoline-3-carbonitrile] | 82 | 4 | – | –
5 | N#Cc1cnc2c(Cl)cc(N[C@@H](c3cccnc3)c3cn(CCN4CCOCC4)nn3)cc2c1Nc1ccc(F)c(Cl)c1 [Example 335, (S)-8-chloro-4-((3-chloro-4-fluorophenyl)amino)-6-(((1-(2-morpholinoethyl)-1H-1,2,3-triazol-4-yl)(pyridin-3-yl)methyl)amino)-quinoiine-3-carbonitrile] | – | – | 405 | 10
6 | COCCOCCn1cc([C@@H](Nc2cc(Cl)c3ncc(C#N)c(Nc4ccc(F)c(Cl)c4)c3c2)c2cccnc2)nn1 [Example 340, (S)-8-chloro-4-((3-chloro-4-fluorophenyl)amino)-6-(((1-(2-(2-methoxyethoxy)ethyl)-1H-1,2,3-triazol-4-yl)(pyridin-3-yl)methyl)-amino)quinoline-3-carbonitrile] | 328 | 8 | – | –
7 | N#Cc1cnc2c(Cl)cc(N[C@@H](c3cccnc3)c3cn(CCOCCO)nn3)cc2c1Nc1ccc(F)c(Cl)c1 [Example 341, (S)-8-chloro-4-((3-chloro-4-fluorophenyl)amino)-6-(((1-(2-(2-hydroxyethoxy)ethyl)-1H-1,2,3-triazol-4-yl)(pyridin-3-yl)methyl)-amino)quinoline-3-carbonitrile] | 843 | 6 | – | –
8 | Cn1cncc1[C@H](Nc1cc(Cl)c2ncc(C#N)c(Nc3ccc(F)c(Cl)c3)c2c1)c1cn(C2CCN(C(C)(C)C)CC2)nn1 [Example 342, (S)-6-(((1-(1-(tert-butyl)piperidin-4-yl)-1H-1,2,3-triazol-4-yl)(1-methyl-1H-imidazol-5-yl)methyl)amino)-8-chloro-4-((3-chloro-4-fluorophenyl)-amino)quinoline-3-carbonitrile] | 6090 | 38 | – | –
9 | CCN1CCc2c([C@H](Nc3cc(Cl)c4ncc(C#N)c(Nc5ccc(F)c(Cl)c5)c4c3)c3cn(C(C)C)nn3)csc2C1 [Example 344, (S)-8-chloro-4-((3-chloro-4-fluorophenyl)amino)-6-(((6-ethyl-4,5,6,7-tetrahydrothieno[2,3-c]pyridin-3-yl)(1-isopropyl-1H-1,2,3-triazol-4-yl)methyl)amino)quinoline-3-carbonitrile] | 151 | 3 | – | –
10 | CC(C)n1cc([C@@H](Nc2cc(Cl)c3ncc(C#N)c(Nc4ccc(F)c(Cl)c4)c3c2)c2csc3c2CCN(C)C3)nn1 [Example 345, (S)-8-chloro-4-((3-chloro-4-fluorophenyl)amino)-6-(((1-isopropyl-1H-1,2,3-triazol-4-yl)(6-methyl-4,5,6,7-tetrahydrothieno[2,3-c]pyridin-3-yl)methyl)amino)quinoline-3-carbonitrile] | 73 | 3 | – | –
11 | CC(C)n1cc([C@@H](Nc2cc(Cl)c3ncc(C#N)c(Nc4ccc(F)c(Cl)c4)c3c2)c2csc3c2CCNC3)nn1 [Example 346, (S)-8-chloro-4-((3-chloro-4-fluorophenyl)amino)-6-(((1-isopropyl-1H-1,2,3-triazol-4-yl)(4,5,6,7-tetrahydrothieno[2,3-c]pyridin-3-yl)methyl)amino)quinoline-3-carbonitrile] | 208 | 3 | – | –
12 | N#Cc1cnc2c(Cl)cc(N[C@@H](c3cscn3)c3cn(CCN)nn3)cc2c1Nc1ccc(F)c(Cl)c1 [Example 359, (S)-6-(((1-(2-arninoethyl)-1H-1,2,3-triazol-4-yl)(thiazol-4-yl)methyl)-amino)-8-chloro-4-((3-chloro-4-fluorophenyl)amino)quinoline-3-carbonitrile] | – | – | 729 | 3

Now from value to compound, other results behind:

Row | EC50 (TNFα; [1]) [nM] | IC50 (Human Cot; IC50 HTRF) [nM] | Compound | EC50 (TNFα; [2]) [nM] | IC50 (Human Cot; read-out: IC50 HTRF) [nM]
13 | 278 | 4 | CC(C)(C)N1CCC(n2cc([C@@H](Nc3cc(Cl)c4ncc(C#N)c(Nc5ccc(F)c(Cl)c5)c4c3)c3ccc(F)nc3)nn2)CC1 [Example 347, (S)-6-(((1-(1-(tert-butyl)piperidin-4-yl)-1H-1,2,3-triazol-4-yl)(6-fluoropyridin-3-yl)methyl)amino)-8-chloro-4-((3-chloro-4-fluorophenyl)amino)quinoline-3-carbonitrile] | – | –
14 | 718 | 41 | CC(C)(C)N1CCC(n2cc([C@@H](Nc3cc(Cl)c4ncc(C#N)c(Nc5ccc(F)c(Cl)c5)c4c3)c3csc4ccc(Cl)cc34)nn2)CC1 [Example 349, (S)-6-(((1-(1-(tert-butyl)piperidin-4-yl)-1H-1,2,3-triazol-4-yl)(5-chlorobenzo[b]-thiophen-3-yl)methyl)amino)-8-chloro-4-((3-chloro-4-fluorophenyl)amino)quinoline-3-carbonitrile] | – | –
15 | 4510 | 26 | CC(C)(C)N1CCC(n2cc([C@@H](Nc3cc(Cl)c4ncc(C#N)c(Nc5ccc(Cl)c(Cl)c5)c4c3)c3cscn3)nn2)CC1 [Example 350, (S)-6-(((1-(1-(tert-butyl)piperidin-4-yl)-1H-1,2,3-triazol-4-yl)(thiazol-4-yl)methyl)amino)-8-chloro-4-((3,4-dichlorophenyl)amino)quinoline-3-carbonitrile] | – | –
16 | 744 | 10 | CC(C)(C)N1CCC(n2cc([C@@H](Nc3cc(Cl)c4ncc(C#N)c(Nc5ccc(F)c(Cl)c5)c4c3)c3csc4ccccc34)nn2)CC1 [Example 351, (S)-6-((benzo[b]thiophen-3-yl(1-(1-(tert-butyl)piperidin-4-yl)-1H-1,2,3-triazol-4-yl)methyl)amino)-8-chloro-4-((3-chloro-4-fluorophenyl)amino)-quinoline-3-carbonitrile] | – | –
17 | 184 | 4 | CC(C)(C)N1CCC(n2cc([C@@H](Nc3cc(Cl)c4ncc(C#N)c(Nc5ccc(F)c(Cl)c5)c4c3)c3cscn3)nn2)CC1 [Example 353, (S)-6-(((1-(1-(tert-butyl)piperidin-4-yl)-1H-1,2,3-triazol-4-yl)(thiazol-4-yl)methyl)amino)-8-chloro-4-((3-chloro-4-fluorophenyl)amino)-quinoline-3-carbonitrile] | – | –
18 | 194 | 5 | CN(C)CCn1cc([C@@H](Nc2cc(Cl)c3ncc(C#N)c(Nc4ccc(F)c(Cl)c4)c3c2)c2cscn2)nn1 [Example 355, (S)-8-chloro-4-((3-chloro-4-fluorophenyl)amino)-6-(((1-(2-(dimethylamino)ethyl)-1H-1,2,3-triazol-4-yl)(thiazol-4-yl)methyl)-amino)quinoline-3-carbonitrile] | – | –
19 | 235 | 5 | CC(C)n1cc([C@@H](Nc2cc(Cl)c3ncc(C#N)c(Nc4ccc(F)c(Cl)c4)c3c2)c2cscn2)nn1 [Example 357, (S)-8-chloro-4-((3-chloro-4-fluorophenyl)amino)-6-(((1-isopropyl-1H-1,2,3-triazol-4-yl)(thiazol-4-yl)methyl)amino)quinoline-3-carbonitrile] | – | –
20 | 130 | 3 | COCCn1cc([C@@H](Nc2cc(Cl)c3ncc(C#N)c(Nc4ccc(F)c(Cl)c4)c3c2)c2cscn2)nn1 [Example 358, (S)-8-chloro-4-((3-chloro-4-fluorophenyl)amino)-6-(((1-(2-methoxyethyl)-1H-1,2,3-triazol-4-yl)(thiazol-4-yl)methyl)amino)-quinoline-3-carbonitrile] | – | –
21 | 151 | 4 | CN(C)CCCn1cc([C@@H](Nc2cc(Cl)c3ncc(C#N)c(Nc4ccc(F)c(Cl)c4)c3c2)c2cscn2)nn1 [Example 360, (S)-8-chloro-4-((3-chloro-4-fluorophenyl)amino)-6-(((1-(3-(dimethylamino)propyl)-1H-1,2,3-triazol-4-yl)(thiazol-4-yl)methyl)-amino)quinoline-3-carbonitrile] | – | –
22 | 257 | 4 | N#Cc1cnc2c(Cl)cc(N[C@@H](c3cscn3)c3cn(C4COC4)nn3)cc2c1Nc1ccc(F)c(Cl)c1 [Example 363, (S)-8-chloro-4-((3-chloro-4-fluorophenyl)amino)-6-(((1-(oxetan-3-yl)-1H-1,2,3-triazol-4-yl)(thiazol-4-yl)methyl)amino)quinoline-3-carbonitrile] | – | –
23 | 241 | 7 | N#CCn1cc([C@@H](Nc2cc(Cl)c3ncc(C#N)c(Nc4ccc(F)c(Cl)c4)c3c2)c2cscn2)nn1 [Example 364, (S)-8-chloro-4-((3-chloro-4-fluorophenyl)amino)-6-(((1-(cyanomethyl)-1H-1,2,3-triazol-4-yl)(thiazol-4-yl)methyl)amino)-quinoline-3-carbonitrile] | – | –
